From US20260085034A1, “N-(BENZHYDRYL)CYCLOALKYLCARBOXAMIDE DERIVATIVES AS INHIBITORS OF GLYCOGEN SYNTHASE 1 (GYS1) AND METHODS OF USE THEREOF” (Maze Therapeutics, Inc., priority 2022, published 2026)

What was measured:
[1] = target: T1, recombinant hGYS1/GN1 protein (Homo sapiens, UniProt P13807); assay: GYS1 coupled enzyme assay (PK/LDH); assay type: biochemical; details: geometric mean of at least 2 assay runs; NADH absorbance at 340 nm
T1 sequence (P13807 1-737): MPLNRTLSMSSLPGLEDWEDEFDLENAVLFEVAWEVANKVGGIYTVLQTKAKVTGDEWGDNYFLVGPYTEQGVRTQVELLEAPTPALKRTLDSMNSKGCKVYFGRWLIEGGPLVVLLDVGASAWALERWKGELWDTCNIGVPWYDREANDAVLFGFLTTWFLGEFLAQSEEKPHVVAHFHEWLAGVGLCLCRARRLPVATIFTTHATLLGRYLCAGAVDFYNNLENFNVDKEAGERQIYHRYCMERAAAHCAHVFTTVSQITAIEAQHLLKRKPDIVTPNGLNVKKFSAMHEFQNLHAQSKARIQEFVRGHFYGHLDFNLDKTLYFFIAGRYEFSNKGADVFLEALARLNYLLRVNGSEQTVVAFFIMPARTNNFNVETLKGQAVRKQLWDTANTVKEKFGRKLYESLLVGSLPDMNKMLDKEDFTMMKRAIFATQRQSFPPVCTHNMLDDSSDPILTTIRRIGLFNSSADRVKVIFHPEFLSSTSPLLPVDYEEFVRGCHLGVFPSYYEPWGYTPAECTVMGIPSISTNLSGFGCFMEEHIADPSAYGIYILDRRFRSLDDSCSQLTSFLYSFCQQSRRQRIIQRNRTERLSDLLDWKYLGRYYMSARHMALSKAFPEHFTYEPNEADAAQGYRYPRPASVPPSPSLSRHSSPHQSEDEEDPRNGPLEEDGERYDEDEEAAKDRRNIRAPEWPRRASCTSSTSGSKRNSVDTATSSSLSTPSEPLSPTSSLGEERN
T1 sequence (P46976 1-350 partner): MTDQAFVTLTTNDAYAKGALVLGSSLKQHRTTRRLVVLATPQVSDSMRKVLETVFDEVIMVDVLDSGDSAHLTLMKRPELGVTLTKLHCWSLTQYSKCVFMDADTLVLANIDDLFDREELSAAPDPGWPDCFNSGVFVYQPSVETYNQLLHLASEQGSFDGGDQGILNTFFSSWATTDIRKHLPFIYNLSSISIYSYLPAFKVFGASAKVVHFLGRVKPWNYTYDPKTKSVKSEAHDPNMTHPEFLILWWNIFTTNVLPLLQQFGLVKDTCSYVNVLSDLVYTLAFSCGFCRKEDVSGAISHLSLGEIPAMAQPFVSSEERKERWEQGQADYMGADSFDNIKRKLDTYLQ
Description: (§1) The GYS1 coupled enzyme assay is a kinetic biochemical assay that indirectly quantifies the rate of glycogen synthesis by coupling the conversion of GYS1 substrate UDP-glucose into UDP with downstream enzymatic reactions. UDP is released from UDP-glucose as glucose monomers are linked into the growing glycogen strand by GYS1. The coupled assay then proceeds with pyruvate kinase utilizing UDP and phospho(enol)pyruvate (PEP) to form pyruvate. Lactate dehydrogenase then converts pyruvate and NADH into lactate and NAD+. Oxidation of NADH to NAD+ can be measured continuously with a plate reader by quantifying the decrease in NADH absorbance at 340 nm over time.
Compounds that inhibit the hGYS1 enzyme and, subsequently, the downstream conversion of NADH to NAD+, were tested using assay ready plates (black, clear bottom 384 well plates) in a final DMSO reaction volume of 2.5% DMSO. The Assay Buffer contained 50 mM Tris pH 7.5, 2 mM MgCl2, and 100 mM KCl. Fresh stocks of BSA at a final concentration of 0.02% and TCEP at 1 mM were added before splitting buffer into hGYS1 buffer and substrate buffer. To the hGYS1 buffer, rabbit liver glycogen was added at a final concentration of 0.2% glycogen. Glucose-6-Phosphate was added at 1 mM, recombinant hGYS1/GN1 protein was added at 50 nM to the substrate buffer, phosphoenolpyruvate (PEP) was added at 2 mM, UDP-Glucose was added at 0.8 mM, NADH) was added at 0.6 mM, and Pyruvate Kinase/Lactate Dehydrogenase was added at 20 units/mL. The reaction was initiated by mixing hGYS1 buffer and substrate buffer at a 1:1 ratio. Both buffers were plated using a liquid dispensing device with hGYS1 buffer plated first followed by the substrate buffer. Plates were spun briefly to eliminate air bubbles and are immediately read in continuous mode at an absorbance of 340 nm, for 10 time points in one-minute increments, for a total of 10 minutes. The slope from these 10 time points was normalized to the positive and negative control wells. The duplicate % inhibition values are then averaged and fit to a Hill equation for dose response according to the Levenberg-Marquardt algorithm with the Hill equation maximum set to 100 and the minimum set to 0.
The results are shown in Table 3 below, which reports the IC50 of each compound. Unless otherwise specified, IC50 values are reported as the geometric mean of at least 2 assay runs on separate days. Each run represents the average of a technical replicate, where each compound was assayed twice in the same plate. As shown in the table below, the compounds of the present invention are potent inhibitors of human GYS1.

[2] = target: T2, recombinant hGYS2/GN1 protein (Homo sapiens, UniProt P54840); assay: GYS2 coupled enzyme assay (PK/LDH); assay type: biochemical; details: geometric mean of at least 2 assay runs; NADH absorbance at 340 nm
T2 sequence (P54840 1-703): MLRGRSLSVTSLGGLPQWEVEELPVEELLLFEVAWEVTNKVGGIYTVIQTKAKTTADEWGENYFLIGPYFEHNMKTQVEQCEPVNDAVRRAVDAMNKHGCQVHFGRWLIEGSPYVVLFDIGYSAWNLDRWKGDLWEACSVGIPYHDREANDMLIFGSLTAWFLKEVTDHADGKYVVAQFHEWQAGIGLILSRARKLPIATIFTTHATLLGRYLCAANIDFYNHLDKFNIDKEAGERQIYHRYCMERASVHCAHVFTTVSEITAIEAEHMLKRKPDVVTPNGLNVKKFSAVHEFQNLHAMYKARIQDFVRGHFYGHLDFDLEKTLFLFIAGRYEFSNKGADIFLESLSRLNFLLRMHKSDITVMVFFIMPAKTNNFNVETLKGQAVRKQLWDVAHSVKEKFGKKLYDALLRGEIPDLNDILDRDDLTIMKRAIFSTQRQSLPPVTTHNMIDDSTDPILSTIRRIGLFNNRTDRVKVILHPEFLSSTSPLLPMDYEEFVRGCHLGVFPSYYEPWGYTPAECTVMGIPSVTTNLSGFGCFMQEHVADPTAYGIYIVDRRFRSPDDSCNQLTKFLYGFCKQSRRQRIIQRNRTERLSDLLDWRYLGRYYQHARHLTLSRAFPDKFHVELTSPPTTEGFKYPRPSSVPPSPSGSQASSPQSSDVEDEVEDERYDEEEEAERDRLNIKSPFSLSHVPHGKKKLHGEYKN
T2 sequence (P46976 1-350 partner): T1 sequence (P46976 1-350 partner)
Description: as §1, with “GYS2” for “GYS1”, “GYS2.” for “GYS1.”
Compounds that inhibit the hGYS2 enzyme and, subsequently, the downstream conversion of NADH to NAD+, were tested using assay ready plates (black, clear bottom 384 well plates) in a final DMSO reaction volume of 2.5% DMSO. The Assay Buffer contained 50 mM Tris pH 7.5, 2 mM MgCl2, and 100 mM KCl. Fresh stocks of BSA at a final concentration of 0.02% and TCEP 1 mM were added before splitting buffer into hGYS2 buffer and substrate buffer. To the hGYS2 buffer, rabbit liver glycogen was added at a final concentration of 0.2% glycogen. Glucose-6-Phosphate was added at 2 mM, recombinant hGYS2/GN1 protein was added at 200 nM to the substrate buffer, phosphoenolpyruvate (PEP) was added at 2 mM, UDP-Glucose was added at 2 mM, NADH was added at 0.6 mM, and Pyruvate Kinase/Lactate Dehydrogenase was added at 20 units/mL. The reaction was initiated by mixing hGYS2 buffer and substrate buffer at a 1:1 ratio. Both buffers were plated using a liquid dispensing device with hGYS2 buffer plated first followed by the substrate buffer. Plates were spun briefly to eliminate air bubbles and are immediately read in continuous mode at an absorbance of 340 nm, for 10 time points in one-minute increments, for a total of 10 minutes. The slope from these 10 time points was normalized to the positive and negative control wells. The duplicate % inhibition values are then averaged and fit to a Hill equation for dose response according to the Levenberg-Marquardt algorithm with the Hill equation maximum set to 100 and the minimum set to 0.
The results are shown in Table 5 below, which reports the IC50 of each compound. Unless otherwise specified, IC50 values are reported as the geometric mean of at least 2 assay runs on separate days. As shown in the table below, the compounds of the present invention are not potent inhibitors of human GYS2. […] Each run represents the average of a technical replicate, where each compound was assayed twice in the same plate.

| Structure (SMILES) | IC50 [1] [nM] | IC50 [2] [nM] |
| --- | --- | --- |
| CCC(=O)Nc1ccccc1[C@H](NC(=O)C1CC1)c1ccc(C(C)C)cc1 [compound 59, (R)-N-((4-isopropylphenyl)(2-propionamidophenyl)methyl)cyclopropanecarboxamide] | 441 | > 100000 |
| CC(C)c1ccc([C@@H](NC(=O)C2CC2)c2ccccc2N/C(N)=N/C#N)cc1 [compound 19, (R,E)-N-((2-(2-cyanoguanidino)phenyl)(4-isopropylphenyl)methyl)cyclopropanecarboxamide] | 304 | > 100000 |
| CC(C)c1ccc([C@@H](NC(=O)C2CC2)c2ccccc2NC(=O)C2COC2)cc1 [compound 60, (R)-N-(2-(cyclopropanecarboxamido(4-isopropylphenyl)methyl)phenyl)oxetane-3-carboxamide] | 521 | > 100000 |
| CC(C)c1ccc([C@@H](NC(=O)C2CC2)c2ccc(O)cc2)cc1 [compound 68, (R)-N-((4-hydroxyphenyl)(4-isopropylphenyl)methyl)cyclopropanecarboxamide] | 663 | > 97400 |
| CC(C)c1ccc([C@@H](NC(=O)[C@H]2C[C@@H]2F)c2ccccc2NC(=O)C2CCN(CC3CC3)CC2)cc1 [compound 14, 1-(cyclopropylmethyl)-N-(2-((R)-((1R,2S)-2-fluorocyclopropane-1-carboxamido)(4-isopropylphenyl)methyl)phenyl)piperidine-4-carboxamide] | 891 | > 100000 |
| CC(C)c1ccc([C@@H](NC(=O)C2CC2)c2cccc(O)c2)cc1 [compound 62, (R)-N-((3-hydroxyphenyl)(4-isopropylphenyl)methyl)cyclopropanecarboxamide] | 376 | > 100000 |
| CC(C)c1ccc([C@@H](NC(=O)C2CC2)c2ccccc2N)cc1 (single isomer, unassigned) [compound 64] | 404 | > 100000 |
| CC(C)c1ccc([C@@H](NC(=O)C2CC2)c2ccccc2)cc1F (single isomer, unassigned) [compound 52] | 591 | > 100000 |
| CNC(=O)Nc1ccccc1[C@H](NC(=O)C1CC1)c1ccc(C(C)C)cc1 [compound 53, (R)-N-((4-isopropylphenyl)(2-(3-methylureido)phenyl)methyl)cyclopropanecarboxamide] | 1230 | > 100000 |
| CC(C)c1ccc([C@@H](NC(=O)C2CC2)c2ccnn2C)cc1 (single isomer, unassigned) [compound 69] | 1820 | > 100000 |
| CNc1ccccc1[C@H](NC(=O)C1CC1)c1ccc(C(C)C)cc1 (single isomer, unassigned) [compound 39] | 502 | > 100000 |
| CC(C)c1ccc([C@@H](NC(=O)C2CC2)c2cccc3[nH]c(=O)oc23)cc1 (single isomer, unassigned) [compound 15] | 883 | > 100000 |
| CC(C)c1ccc([C@@H](NC(=O)[C@H]2C[C@@H]2F)c2ccccc2NC(=O)C2CCN(CC(F)(F)F)CC2)cc1 [compound 9, N-(2-((R)-((1R,2S)-2-fluorocyclopropane-1-carboxamido)(4-isopropylphenyl)methyl)phenyl)-1-(2,2,2-trifluoroethyl)piperidine-4-carboxamide] | 956 | > 100000 |
| COc1cccc([C@H](NC(=O)C2CC2)c2ccc(C(C)C)cc2)c1 [compound 70, (R)-N-((4-isopropylphenyl)(3-methoxyphenyl)methyl)cyclopropanecarboxamide] | 786 | > 100000 |
| CC(C)c1ccc([C@@H](NC(=O)C2CC2)c2cccnc2N)cc1 (single isomer, unassigned) [compound 51] | 735 | > 100000 |
| Cc1cccc([C@H](NC(=O)C2CC2)c2ccc(C(C)C)cc2)c1 (single isomer, unassigned) [compound 66] | 2100 | > 100000 |
